Laboratory results published in US8129345B2, “MUC1-IκB kinase complexes and their activities” (Dana-Farber Cancer Institute, Inc., priority 2006, dated 2012).

Legend:
MCF-10A cells = assay: TNFα stimulation of MCF-10A cells, immunoprecipitation and immunoblotting of fractions; type: cell-based, Human; settings: 20 ng/ml TNFα
Description: FIG. 10B is a pair of photographs of immunoblots. Lysates from MCF-10A cells left untreated (0) or stimulated with 20 ng/ml TNFα for the indicated times (0.5, or 2 hours) were immunoprecipitated with anti-IKKβ (left) or anti-IKKγ (right). The immunoprecipitates were immunoblotted with antibodies specific to MUC1-C, and either IKKβ (left panel) or IKKγ (right panel) as loading controls. The molecular weights of proteins (as indicated on the left of the photographs) are expressed as kilodaltons (kDa).
FIG. 10C is a series of photographs of immunoblots. MCF-10A cells were left untreated (0) or stimulated with 20 ng/ml TNFα for the indicated times. Cytosolic and nuclear fractions of the cells were prepared and subjected to immunoblotting with the indicated antibodies. The molecular weights of proteins (as indicated on the left of the photographs) are expressed as kilodaltons (kDa).
(§1) Cell culture. Human HCT116 colon carcinoma cells, HeLa cervical carcinoma cells and MCF-7 breast cancer cells were grown in Dulbecco's modified Eagle's medium with 10% heat-inactivated fetal bovine serum, 100 units/ml penicillin, […] streptomycin and 2 mM L-glutamine. Human ZR-75-1 breast cancer cells were grown in RPMI1640 medium containing 10% heat-inactivated fetal bovine serum, antibiotics and L-glutamine. Human MCF-10A breast epithelial cells were grown in mammary epithelial cell growth media (MEGM; Cambrex Corp.).
Subcellular fractionation. Nuclear and cytosolic fractions were prepared as described in Kharbanda et al. (1996) Cancer Res. 56:3617-3621.
(§2) Immunoprecipitation and immunoblotting. Lysates from subconfluent cells were prepared as described in Ren et al. (2004) Cancer Cell 5:163-175. Soluble proteins were incubated with anti-IKKβ (Cell Signaling Technology) or anti-IKKγ (Santa Cruz Biotechnology) for 2 h at 4° C. […] The immune complexes were detected with horseradish peroxidase-conjugated secondary (anti-IgG) antibodies (Amersham Biosciences) and enhanced chemiluminescence (ECL; Amersham Biosciences). […]

MCF-7 cells = assay: TNFα treatment of MCF-7 cells, MUC1-C binding to IKKs; type: cell-based, Human
Description: as §1, §2

TNFα
phosphorylation and degradation of IκBα (MCF-10A cells; MCF-10A cytosolic fractions): associated with phosphorylation and degradation of IκBα | targeting of NF-κB p65 to the nucleus (MCF-10A cells; MCF-10A nuclear fractions): targeting of NF-κB p65 to the nucleus | binding of MUC1-C to IKKβ and IKKγ (MCF-10A cells; MCF-10A): increased binding | binding of MUC1-C to IKKβ or IKKγ (MCF-7 cells): no apparent effect
